Earlier results on one compound are cited in patent US10342816B2, “Aqueous ophthalmic formulations based on azithromycin” (MEDIVIS S.R.L., priority 2013, dated 2019).

The conditions of series [1]: aqueous solution, phosphate buffer, low ionic strength.
The conditions of series [2]: pharmacopoeia.

Take `CC[C@H]1OC(=O)[C@H](C)[C@@H](O[C@H]2CC(C)(OC)[C@@H](O)C(C)O2)[C@H](C)[C@@H](O[C@@H]2OC(C)CC(N(C)C)C2O)[C@](C)(O)C[C@@H](C)CN(C)[C@H](C)[C@@H](O)[C@]1(C)O` (some centres unmarked) [azithromycin]: the “pH at which the kinetics of the hydrolytic phenomenon has the minimum value” in series [1] is reported as 6.3. Also, in series [2], the solubility in water entry was “poorly soluble in water”.
